From patent US20240344145A1, “PHARMACOGENOMICS SCORE TO MAKE DECISIONS ON THERAPY AUGMENTATION IN AML” (University of Florida Research Foundation, Incorporated, priority 2021, published 2024)

Tests used:
[1] = system: AML patients (1 month to 29.9 years old); conditions: previously reported, cited from earlier work
[2] = system: AML patients (1 month to 29.9 years old); experiment: COG-AAML0531 clinical trial, ADE vs ADE+GO arms: MRD1, EFS and OS overall and by ACS10 score and CD33 SNP; format: in vivo, human; conditions: low ACS10 score
Description: AAML0531 clinical trial enrolled previously untreated AML patients (1 month to 29.9 years old) who were randomized to receive ADE (cytarabine 100 mg/m^2/dose twice per day for […] alongside with daunorubicin and etoposide-equivalent to LDAC arm of St. Jude AML02) with or without the addition of 1 dose in induction 1 and 1 dose in intensification of CD33-targeting drug gemtuzumab ozogamicin (ADE+GO arm). Genotype data on 10 SNPs that were part of the ACS10 score in the discovery cohort was generated in 931 patients (n=465 in standard ADE arm and n=466 in ADE+GO arm). […] In subsequent analysis to check whether ACS10 score has impact on the GO addition, the evaluation of patients from the ADE+GO arm was also considered.
The association of MRD1, EFS, and OS was evaluated with ACS10 scores in the AML02 discovery cohort and the AAML0531 validation cohort. The Kaplan-Meier method was used to estimate the EFS and OS probabilities for well-defined groups of patients. Cox regression models were used to associate ACS10 with EFS and OS and used logistic regression models to associate ACS10 with MRD1. The Wilcoxon rank-sum test and Kruskal-Wallis test were used to compare medians of numeric variables across groups. Chi-square tests and Fisher's exact test were used to evaluate the association among pairs of categorical variables. All p-values are two-sided. […]

Substance: gemtuzumab ozogamicin [GO]
- benefit from addition of GO to standard chemotherapy ([1]; CD33 rs12459419 CT/TT genotypes, ADE+GO versus ADE): derived no benefit from addition of GO
- survival (EFS and DFS) with addition of GO to standard chemotherapy ([1]; CD33 rs12459419 homozygous CC genotype): significantly better survival
- benefit from adding GO (EFS and OS) ([2]; CD33 rs12459419 CC genotype): benefit from adding GO
- benefit from addition of GO (EFS and OS) ([2]; CT/TT genotype for CD33 rs12459419): do not benefit from addition of GO
